Earlier results, collected in patent US4975422A, “Angiogenesis inhibitor” (Kureha Kagaku Kogyo Kabushiki Kaisha, priority 1988, dated 1990).

Settings: oral; species not stated

For COc1ccc2c(c1)c(CC(=O)O)c(C)n2C(=O)c1ccc(Cl)cc1 [indomethacin], the LD50 is listed as 50 mg/kg.
